PMC6693348 (Journal of medicinal chemistry, 2019)
Like-named read-outs stand apart in the source and are kept apart here.

Assays:
[1] = target: EGFR protein ECD (Homo sapiens, UniProt P00533); test: Surface plasmon resonance with immobilized EGFR; format: binding; conditions: analyte 0–300 μM
[2] = reference standard; cited from earlier work
[3] = test system: epidermal growth factor receptor (EGFR); conditions: cited from earlier work

Compound: 8-(3,5-Dimethoxyphenyl)-bis(3-p-isothio-cyanato phenyl)-BODIPY [BODIPY 10]
- specificity of binding to EGFR ECD (sensorgrams) [1]: nonspecific binding or weak binding

Compound: CN(C)c1ccc2nc3ccc(=[N+](C)C)cc-3sc2c1 [methylene blue]
- ΦF (fluorescence quantum yield) [2]: 0.035

Compound: LARLLT [D4]
- affinity for EGFR ([3]; both in vitro and in vivo): high affinity

Compound: YHWY-GYTPQNVI [GE11]
- affinity for EGFR ([3]; both in vitro and in vivo): high affinity

Compound: cyclo(K(N3)larllt)
- affinity for EGFR [3]: high affinity
